Here are results for 31 compounds from patent US8338565B2, “Macrocyclic compounds for inhibition of tumor necrosis factor alpha” (Ensemble Therapeutics Corporation, priority 2008, dated 2012).

Numbered stars: 1 amine (or outer) side, 2 acyl side, 3 side chain; on linkers, the order of the positions; unused ones are H or OH. Bridge positions count the residues as written; N and C are the ends. Square brackets hold non-standard residues; d marks the D form. Peptide text beside a SMILES is read from it. Tartaroyl(2R,3R-(OAc)2) = CC(=O)O[C@@H](C(=O)[*:1])[C@@H](OC(C)=O)C(=O)[*:2]; Phe(4-COOH) = N[C@@H](Cc1ccc(C(=O)O)cc1)C(=O)O; Bip = N[C@@H](Cc1ccc(-c2ccccc2)cc1)C(=O)O; dBip = N[C@H](Cc1ccc(-c2ccccc2)cc1)C(=O)O; dPhe(4-NH2) = Nc1ccc(C[C@@H](N)C(=O)O)cc1; dPhe(4-Br) = N[C@H](Cc1ccc(Br)cc1)C(=O)O; Phe(4-NH2) = Nc1ccc(C[C@H](N)C(=O)O)cc1; d(hPhe) = N[C@H](CCc1ccccc1)C(=O)O; hPhe = N[C@@H](CCc1ccccc1)C(=O)O; 3Pal = N[C@@H](Cc1cccnc1)C(=O)O; 2Thi = N[C@@H](Cc1cccs1)C(=O)O; d2Thi = N[C@H](Cc1cccs1)C(=O)O; Suc = O=C(CCC(=O)[*:2])[*:1]; GABA = NCCCC(=O)O; βAla = NCCC(=O)O

T1 sequence (P01375 77-233 limits assumed, species assumed): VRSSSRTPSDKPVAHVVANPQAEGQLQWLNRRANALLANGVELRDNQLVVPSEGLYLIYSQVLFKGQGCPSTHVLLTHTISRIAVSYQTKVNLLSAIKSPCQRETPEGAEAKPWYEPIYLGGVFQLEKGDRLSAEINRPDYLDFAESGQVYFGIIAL

The experiment addresses T1, TNFα / TNFα receptor (TNFα R1/Fc) (Homo sapiens, UniProt P01375).
T1 construct: purchased R&D Systems
The experiment is described as follows: Inhibition of binding of TNFα to the TNFα receptor (plate ELISA competition). The conditions noted are these: Table 2; read-out: Activity (IC50, inhibition of TNFα binding to TNFα R1/Fc). The essentials: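 Compound dilutions were preincubated 30 min at RT with 8.33 nM TNFα R1/Fc in PBST with 2% DMSO, then added to wells coated with 15 nM TNFα for 30 min. Bound receptor was detected with HRP anti-human Fc and TMB, read as A450.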
A general note: An ELISA detects its analyte on a solid surface through an enzyme-linked reagent.
With `CC(=O)N[C@@H]1CC(=O)N[C@H](Cc2cccs2)C(=O)N[C@@H](Cc2ccc(-c3ccccc3)cc2)C(=O)N[C@H](Cc2ccccc2)C(=O)N[C@H](C(=O)O)Cc2ccc(cc2)NC1=O` [Compound 378], the IC50 is 10 to 30 µM.

For the compound `O=C(O)CNC(=O)[C@@H]1Cc2ccc(cc2)OCC(=O)N[C@@H](Cc2cccs2)C(=O)N[C@H](Cc2ccc(-c3ccccc3)cc2)C(=O)N[C@@H](Cc2ccccc2)C(=O)N1` [Compound 383], the IC50 was under 10 µM.

`O=C1COc2ccc(cc2)C[C@@H](C(=O)N[C@@H](Cc2ccc(O)cc2)C(=O)O)NC(=O)[C@H](Cc2ccccc2)NC(=O)[C@@H](Cc2ccc(-c3ccccc3)cc2)NC(=O)[C@H](Cc2cccs2)N1` [Compound 387]: the IC50 was over 100 µM.

As to `CC(C)(C)OC(=O)C[C@H](NC(=O)[C@@H]1Cc2ccc(cc2)OCC(=O)N[C@@H](Cc2cccs2)C(=O)N[C@H](Cc2ccc(-c3ccccc3)cc2)C(=O)N[C@@H](Cc2ccccc2)C(=O)N1)C(=O)O` [Compound 389], the IC50 is over 100 µM.

`O=C(O)CN(Cc1ccccc1)C(=O)[C@@H]1Cc2ccc(cc2)OCC(=O)N[C@@H](Cc2cccs2)C(=O)N[C@H](Cc2ccc(-c3ccccc3)cc2)C(=O)N[C@@H](Cc2ccccc2)C(=O)N1` [Compound 392]: the IC50 fell in the range of 10 to 30 µM.

Consider `CC(=O)O[C@H]1C(=O)Nc2ccc(cc2)C[C@H](C(=O)N[C@@H](Cc2ccccc2)C(=O)O)NC(=O)[C@@H](Cc2ccccc2)NC(=O)[C@H](Cc2ccc(-c3ccccc3)cc2)NC(=O)[C@@H](Cc2cccs2)NC(=O)[C@@H]1OC(C)=O` [Compound 394] ([d2Thi][Bip][dF][dPhe(4-NH2)]F-OH; linker N-4 via Tartaroyl(2R,3R-(OAc)2)), for which the IC50 was under 10 µM.

With `O=C1COc2ccc(cc2)C[C@@H](C(=O)O)NC(=O)[C@H](Cc2ccccc2)NC(=O)[C@@H](Cc2ccc(C(F)(F)F)cc2)NC(=O)[C@H](Cc2cccs2)N1` [Compound 397], the IC50 is over 100 µM.

`O=C1COc2ccc(cc2)C[C@@H](C(=O)O)NC(=O)[C@H](Cc2ccccc2)NC(=O)[C@H](Cc2ccc(F)cc2)NC(=O)[C@H](Cc2cccs2)N1` [Compound 398]: the IC50 was under 10 µM.

Regarding `O=C1COc2ccc(cc2)C[C@@H](C(=O)O)NC(=O)[C@H](Cc2ccccc2)NC(=O)[C@@H](Cc2ccc(Br)cc2)NC(=O)[C@H](Cc2cccs2)N1` [Compound 399], the IC50 was over 100 µM.

Consider `O=C1COc2ccc(cc2)C[C@@H](C(=O)O)NC(=O)[C@H](Cc2ccccc2)NC(=O)[C@H](Cc2cccc(C(F)(F)F)c2)NC(=O)[C@H](Cc2cccs2)N1` [Compound 400], for which the IC50 is under 10 µM.

For the compound `O=C(O)CCNC(=O)[C@@H]1Cc2ccc(cc2)NC(=O)[C@H](O)[C@@H](O)C(=O)N[C@H](Cc2cccs2)C(=O)N[C@@H](Cc2ccc(-c3ccccc3)cc2)C(=O)N[C@H](CCc2ccccc2)C(=O)N1` [Compound 401], the IC50 is under 10 µM.

Take `O=C(O)CCCNC(=O)[C@@H]1Cc2ccc(cc2)NC(=O)[C@H](O)[C@@H](O)C(=O)N[C@H](Cc2cccs2)C(=O)N[C@@H](Cc2ccc(-c3ccccc3)cc2)C(=O)N[C@H](CCc2ccccc2)C(=O)N1` [Compound 402]: the IC50 was in the range of 10 to 30 µM.

Take `O=C1CCC(=O)N[C@H](CCc2ccccc2)C(=O)N[C@@H](Cc2ccc(-c3ccccc3)cc2)C(=O)N[C@H](Cc2ccccc2)C(=O)N[C@H](C(=O)N[C@@H](Cc2cccnc2)C(=O)O)Cc2ccc(cc2)N1` [Compound 403] ([d(hPhe)][Bip][dF][Phe(4-NH2)][3Pal]-OH; linker N-4 via Suc): the IC50 is over 100 µM.

`O=C1COc2ccc(cc2)C[C@@H](C(=O)NCC2(C(=O)O)CC2)NC(=O)[C@@H](CCc2ccccc2)NC(=O)[C@H](Cc2ccc(-c3ccccc3)cc2)NC(=O)[C@@H](Cc2cccs2)N1` [Compound 404]: the IC50 was under 10 µM.

For the compound `O=C(O)[C@H](Cc1cccnc1)NC(=O)[C@@H]1Cc2ccc(cc2)NC(=O)[C@H](O)[C@@H](O)C(=O)N[C@H](Cc2cccs2)C(=O)N[C@@H](Cc2ccc(-c3ccccc3)cc2)C(=O)N[C@H](CCc2ccccc2)C(=O)N1` [Compound 405], the IC50 is over 100 µM.

Consider `COc1ccc(C[C@@H]2NC(=O)[C@H](Cc3cccs3)NC(=O)COc3ccc(cc3)C[C@@H](C(=O)O)NC(=O)[C@H](Cc3ccccc3)NC2=O)cc1OC` [Compound 406], for which the IC50 is over 100 µM.

Take `COc1cccc(C[C@H]2NC(=O)[C@H](Cc3cccs3)NC(=O)COc3ccc(cc3)C[C@@H](C(=O)O)NC(=O)[C@H](Cc3ccccc3)NC2=O)c1` [Compound 407]: the IC50 was over 100 µM.

As for `COc1cccc(C[C@@H]2NC(=O)[C@H](Cc3cccs3)NC(=O)COc3ccc(cc3)C[C@@H](C(=O)O)NC(=O)[C@H](Cc3ccccc3)NC2=O)c1` [Compound 408], the IC50 was over 100 µM.

With `CC(=O)O[C@H]1C(=O)Nc2ccc(cc2)C[C@H](C(=O)N[C@@H](Cc2ccccc2)C(=O)O)NC(=O)[C@@H](CCc2ccccc2)NC(=O)[C@H](Cc2ccc(-c3ccccc3)cc2)NC(=O)[C@@H](Cc2cccs2)NC(=O)[C@@H]1OC(C)=O` [Compound 409] ([d2Thi][Bip][d(hPhe)][dPhe(4-NH2)]F-OH; linker N-4 via Tartaroyl(2R,3R-(OAc)2)), the IC50 was under 10 µM.

`CC(=O)O[C@H]1C(=O)Nc2ccc(cc2)C[C@H](C(=O)N[C@@H](Cc2ccccc2)C(=O)O)NC(=O)[C@H](CCc2ccccc2)NC(=O)[C@@H](Cc2ccc(-c3ccccc3)cc2)NC(=O)[C@H](Cc2cccs2)NC(=O)[C@@H]1OC(C)=O` [Compound 411] ([2Thi][dBip][hPhe][dPhe(4-NH2)]F-OH; linker N-4 via Tartaroyl(2R,3R-(OAc)2)): the IC50 was over 100 µM.

In the case of `CC(=O)O[C@H]1C(=O)Nc2ccc(cc2)C[C@@H](C(=O)N[C@@H](Cc2ccccc2)C(=O)O)NC(=O)[C@H](CCc2ccccc2)NC(=O)[C@@H](Cc2ccc(-c3ccccc3)cc2)NC(=O)[C@H](Cc2cccs2)NC(=O)[C@@H]1OC(C)=O` [Compound 412] ([2Thi][dBip][hPhe][Phe(4-NH2)]F-OH; linker N-4 via Tartaroyl(2R,3R-(OAc)2)), the IC50 was under 10 µM.

For the compound `CC(=O)O[C@H]1C(=O)Nc2ccc(cc2)C[C@H](C(=O)N[C@@H](Cc2ccccc2)C(=O)O)NC(=O)[C@H](Cc2ccccc2)NC(=O)[C@@H](Cc2ccc(-c3ccccc3)cc2)NC(=O)[C@H](Cc2cccs2)NC(=O)[C@@H]1OC(C)=O` [Compound 413] ([2Thi][dBip]F[dPhe(4-NH2)]F-OH; linker N-4 via Tartaroyl(2R,3R-(OAc)2)), the IC50 was over 100 µM.

Regarding `CC(=O)O[C@H]1C(=O)Nc2ccc(cc2)C[C@@H](C(=O)N[C@@H](Cc2ccccc2)C(=O)O)NC(=O)[C@H](Cc2ccccc2)NC(=O)[C@@H](Cc2ccc(-c3ccccc3)cc2)NC(=O)[C@H](Cc2cccs2)NC(=O)[C@@H]1OC(C)=O` [Compound 414] ([2Thi][dBip]F[Phe(4-NH2)]F-OH; linker N-4 via Tartaroyl(2R,3R-(OAc)2)), the IC50 was over 100 µM.

With `CC(=O)O[C@H]1C(=O)Nc2ccc(cc2)C[C@H](C(=O)N[C@@H](Cc2ccccc2)C(=O)O)NC(=O)[C@H](CCc2ccccc2)NC(=O)[C@@H](Cc2ccc(Br)cc2)NC(=O)[C@H](Cc2cccs2)NC(=O)[C@@H]1OC(C)=O` [Compound 415] ([2Thi][dPhe(4-Br)][hPhe][dPhe(4-NH2)]F-OH; linker N-4 via Tartaroyl(2R,3R-(OAc)2)), the IC50 was over 100 µM.

With `CC(=O)O[C@H]1C(=O)Nc2ccc(cc2)C[C@@H](C(=O)N[C@@H](Cc2ccccc2)C(=O)O)NC(=O)[C@H](CCc2ccccc2)NC(=O)[C@@H](Cc2ccc(Br)cc2)NC(=O)[C@H](Cc2cccs2)NC(=O)[C@@H]1OC(C)=O` [Compound 416] ([2Thi][dPhe(4-Br)][hPhe][Phe(4-NH2)]F-OH; linker N-4 via Tartaroyl(2R,3R-(OAc)2)), the IC50 was over 100 µM.

In the case of `CC(=O)O[C@H]1C(=O)Nc2ccc(cc2)C[C@H](C(=O)N[C@@H](Cc2ccccc2)C(=O)O)NC(=O)[C@H](Cc2ccccc2)NC(=O)[C@@H](Cc2ccc(Br)cc2)NC(=O)[C@H](Cc2cccs2)NC(=O)[C@@H]1OC(C)=O` [Compound 417] ([2Thi][dPhe(4-Br)]F[dPhe(4-NH2)]F-OH; linker N-4 via Tartaroyl(2R,3R-(OAc)2)), the IC50 was over 100 µM.

For the compound `CC(=O)O[C@H]1C(=O)Nc2ccc(cc2)C[C@@H](C(=O)N[C@@H](Cc2ccccc2)C(=O)O)NC(=O)[C@H](Cc2ccccc2)NC(=O)[C@@H](Cc2ccc(Br)cc2)NC(=O)[C@H](Cc2cccs2)NC(=O)[C@@H]1OC(C)=O` [Compound 418] ([2Thi][dPhe(4-Br)]F[Phe(4-NH2)]F-OH; linker N-4 via Tartaroyl(2R,3R-(OAc)2)), the IC50 is over 100 µM.

Take `O=C(O)CCNC(=O)[C@@H]1Cc2ccc(cc2)C(=O)NCCC(=O)N[C@H](CCc2ccccc2)C(=O)N[C@@H](Cc2ccc(-c3ccccc3)cc2)C(=O)N[C@H](Cc2ccccc2)C(=O)N1` [Compound 420] ([βAla][d(hPhe)][Bip][dF][Phe(4-COOH)][βAla]-OH; lactam N-5): the IC50 is over 100 µM.

`O=C(O)CCCNC(=O)[C@@H]1Cc2ccc(cc2)C(=O)NCCC(=O)N[C@H](CCc2ccccc2)C(=O)N[C@@H](Cc2ccc(-c3ccccc3)cc2)C(=O)N[C@H](Cc2ccccc2)C(=O)N1` [Compound 421] ([βAla][d(hPhe)][Bip][dF][Phe(4-COOH)][GABA]-OH; lactam N-5): the IC50 is under 10 µM.

On to `O=C1CCNC(=O)c2ccc(cc2)C[C@@H](C(=O)N[C@@H](Cc2ccccc2)C(=O)O)NC(=O)[C@@H](Cc2ccccc2)NC(=O)[C@H](Cc2ccc(-c3ccccc3)cc2)NC(=O)[C@@H](CCc2ccccc2)N1` [Compound 422] ([βAla][d(hPhe)][Bip][dF][Phe(4-COOH)]F-OH; lactam N-5), for which the IC50 was under 10 µM.

With `O=C1CCNC(=O)c2ccc(cc2)C[C@@H](C(=O)N[C@H](Cc2ccccc2)C(=O)O)NC(=O)[C@@H](Cc2ccccc2)NC(=O)[C@H](Cc2ccc(-c3ccccc3)cc2)NC(=O)[C@@H](CCc2ccccc2)N1` [Compound 423] ([βAla][d(hPhe)][Bip][dF][Phe(4-COOH)][dF]-OH; lactam N-5), the IC50 was under 10 µM.
